Results: paper PMC11218446, “Antibacterial efficacy and membrane mechanism of action of the Serratia-derived non-ionic lipopeptide, serrawettin W2-FL10” (Microbiology Spectrum, 2024)
Values after ≈ are worked out from the molar mass of the structure shown. Values joined by “and” are separate entries in the source; they are usually repeats but may differ in a detail not shown here. Equal entries are not always repeated.

Columns and labels:
[1] = Lipophilicity, miniaturized shake-flask log D; assay type: physicochemical; conditions: 96-well, 1-octanol/phosphate buffer pH 7.4, shaken 2 h at 25°C, HPLC-UV
Method: The lipophilicity of the compound was measured using a miniaturized shake-flask method, in 96-well plate format ([48]). Briefly, equal volumes of 1-octanol and phosphate buffer at pH 7.4 were added to each compound in a deep well plate. The plate was shaken vigorously for 2 h at 25°C. The phases were then carefully separated and transferred to another plate. Analysis was performed by HPLC-UV and log D values were determined from the peak areas of the compound in octanol and buffer phases.

Enterococcus faecium = conditions: cited from earlier work
Source text: The antimicrobial activity of the serrawettin W2-FI10 analog (i.e., C10H18O2-Leu-Ser-Thr-Phe-Ile), has been extensively investigated.

E. faecalis S1 = assay: Broth microdilution assay (OD 600 nm); assay type: cell-based, Enterococcus faecalis
Method: (§1) Serrawettin W2-FL10 (95% pure) was tested for antibacterial activity using a broth microdilution susceptibility assay ([6]), with melittin included as an antibiotic control. The serrawettin W2-FL10 was prepared in 70% MeCN to 1.00 mg/mL, from which aliquots were prepared using 70% MeCN to a concentration of 50 µg/mL or 500 µg/mL, while aliquots of melittin were prepared using analytical quality H2O to 128 µg/mL. Fifty microliters of the respective W2-FL10 aliquots or melittin were dispensed into a clear 96-well plate and a microdilution (in 70% MeCN for W2-FL10 or analytical quality H2O for melittin) was performed within the plate. The plate was air-dried to remove the solvent and placed in a desiccator with chloroform for 20 min for sterilization.
(§2) All the cultures (inoculated into 5 mL MHB, or 5 mL TSB for Listeria and Enterococcus strains) were incubated at 37°C to reach an optical density (OD) of 0.4 at 600 nm (∼10^7 CFU/mL). A 1:20 dilution of the test strain (final concentration of ∼10^5 CFU/mL) was prepared and 100 µL was dispensed into each well (final concentration of W2-FL10 at 1.5–125 µg/mL and melittin at 2–32 µg/mL). Sterile broth and the OD-adjusted inoculum were included as positive controls, while sterile broth (no inoculum) was included as a negative control. The 96-well plate was incubated for 18 h at 37°C. All the tests were performed in triplicate, with independent duplicates. Following incubation, the absorbance was measured using a microtiter plate reader at 600 nm. The 50% growth inhibition concentration (IC50) was determined using GraphPad Prism version 5 for Windows [GraphPad Software, San Diego, USA (www.graphpad.com)]. A sigmodal curve with variable slope was fitted to each set of dose-repose data according to Rautenbach et al. ([17]) using equation (1):
(§3) (1) Y=bottom+(top−bottom)/1+10^logIC50×Activity slope
(§4) The “top” and “bottom” are the maximum and minimum inhibition responses, respectively, for a particular set of dose-response data, while the activity slope is related to the Hill slope of a sigmoidal binding curve ([16]). […] The MIC value was determined for each set of dose-response data as the lowest concentration, resulting in ≥90% inhibition of the target cell growth. In addition to the MIC and IC50 inhibition parameters, an inhibition concentration factor (ICF), was calculated as outlined in Rautenbach et al. ([17]). The ICF is indicative of the concentration increase from the highest concentration where no activity is observed to the MIC of a compound.

E. faecalis ATCC 7080 = assay: Broth microdilution assay (OD 600 nm); assay type: cell-based, Enterococcus faecalis
Method: as §1, §2, §3, §4

three S. aureus strains = assay: Membrane depolarization assay, DiSC3(5), summary; assay type: cell-based, Staphylococcus aureus; conditions: abstract
Method: The membrane depolarization capability (ability to disrupt membrane potential) of the W2-FL10 against S. aureus ATCC 25923, S. aureus RN4220, or MRSA Xen 30 was determined using the voltage-sensitive fluorescent probe, DiSC3(5) ([20]). Briefly, black 96-well plates were prepared with W2-FL10 at 12.5 µg/mL and 25 µg/mL, while 4 and 8 µg/mL of melittin were used as a positive depolarization control, and the plates were air dried as described in the “Antibacterial activity: broth microdilution assay” section. The S. aureus strains were inoculated into MHB and grown to the mid-log phase (OD600 of 0.5–0.6). Cells were harvested by centrifugation at 3,000 rpm for 10 min and resuspended in HEPES buffer (5 mM, pH 7.4, containing 20 mM glucose; 100 mM KCl) to OD600 of 0.05. Thereafter, DiSC3(5) (stock concentration of 400 µM in 100% DMSO) was added to the cell suspension to a final concentration of 0.4 µM, and cells were incubated in the dark at room temperature for 40 min. Cell suspensions (100 µL) were then dispensed into the wells of the black 96-well plate. […] Fluorometric readings of the plate were conducted at 1 min intervals over 12 min (readings began 60 s after cells were added to the plates) using a Tecan Spark at 622 nm excitation wavelength and 670 nm emission wavelength. […]

E. faecium S1 = assay: Broth microdilution assay (OD 600 nm); assay type: cell-based, Enterococcus faecium
Method: as §1, §2, §3, §4

B. subtilis ATCC 6051 = assay: Broth microdilution assay (OD 600 nm); assay type: cell-based, Bacillus subtilis
Method: as §1
as §2, with “A sigmodal curve with variable slope was fitted to each set of dose-repose data according to Rautenbach et al. ([17]) using equation (1):” left out
The “top” and “bottom” are the maximum and minimum inhibition responses, respectively, for a particular set of dose-response data, while the activity slope is related to the Hill slope of a sigmoidal binding curve ([16]). […] In addition to the MIC and IC50 inhibition parameters, an inhibition concentration factor (ICF), was calculated as outlined in Rautenbach et al. ([17]). […]

[2] = 50% growth inhibition, sigmoidal curve fit, n = 3
[3] = inhibition concentration factor
[4] = ≥90% growth inhibition, OD 600 nm, TSB, 18 h 37°C

In the case of CCCCCCCC1CC(=O)N[C@H](CC(C)C)C(=O)N[C@@H](CO)C(=O)N[C@@H]([C@@H](C)O)C(=O)N[C@H](Cc2ccccc2)C(=O)N[C@@H](CC(C)C)C(=O)O1 (some centres unmarked) [W2-FL10, serrawettin W2-FL10], the logD at 2 h [1] is given as 2.5, the “minimum inhibitory concentration (MIC)” value (Enterococcus faecium) is given as 15.6 µg/mL (≈ 21.3 µM) and the “IC50 ± SD” value (E. faecalis S1; [2]) is given as 5.2 ± 0.5 (3) µg/mL. For the same compound, the Selectivity index (E. faecalis S1; LC50 (CHO)/IC50) was 5.6, the “ICF (MIC/IC50)^2” value (E. faecalis S1; [3]) was 5.4 and the MIC (E. faecalis S1; [4]) was 12.5 μg/mL and 12.5 (17.1) μg/mL. The “IC50 ± SD” value (E. faecalis ATCC 7080; [2]) was 3.2 ± 0.3 (3) µg/mL, the Selectivity index (E. faecalis ATCC 7080; LC50 (CHO)/IC50) was 9.1 and the MIC (E. faecalis ATCC 7080; [4]) was 6.3 μg/mL and 6.3 (8.5) μg/mL. The “time within which membrane potential was dissipated” value (three S. aureus strains) was at most 12 min, the “IC50 ± SD” value (E. faecium S1; [2]) was 5.4 ± 0.1 (3) µg/mL and the Selectivity index (E. faecium S1; LC50 (CHO)/IC50) was 5.4. For the same compound, the “ICF (MIC/IC50)^2” value (E. faecium S1; [3]) was 5.9, the MIC (E. faecium S1; [4]) was 12.5 μg/mL and 12.5 (17.1) μg/mL and the “IC50 ± SD” value (B. subtilis ATCC 6051; [2]) was 13.4 ± 0.8 (3) µg/mL. The Selectivity index (B. subtilis ATCC 6051; LC50 (CHO)/IC50) was 2.2 and the MIC (B. subtilis ATCC 6051; ≥90% growth inhibition, OD 600 nm, MHB, 18 h 37°C) was 31.3 μg/mL and 31.3 (42.7) μg/mL.
